Here are results for five molecules from patent publication US12016922B2, “Stabilized aqueous antibody compositions” (Arecor Limited, priority 2012, dated 2024).

One data set deals with rituximab. Kind of data set: Aggregation of rituximab formulations on storage, % HMWS by size exclusion chromatography. Type of data set: physicochemical. As to conditions: trehalose 200 mM, pH 6.5, 40° C.; for effect on the rate of formation of HMWS / rate of aggregation compared with Original formulation: Example 4: rituximab 100 mg/ml; for effect on the rate of formation of HMWS: compared with background formulation without oligomer; for % HMWS 16 weeks / % HWMS 0 weeks: rituximab 100 mg/ml; for effect on the rate of aggregation: Example 5: rituximab 140 mg/ml; for % HMWS 0 weeks / % HMWS 12 weeks / % HMWS 26 weeks: rituximab 140 mg/ml. Here is the method: (§1) Formulations of protein therapeutics, rituximab and certolizumab pegol, were prepared either in the absence or in the presence of various oligomers of ethyleneimine. The following products were used as the starting material: MabThera® (rituximab) and Cimzia® (certolizumab pegol). The compositions of the two products are as follows:
(§2) In order to prepare the formulations for testing, it was necessary to remove the original excipients and replace them with the selected excipients. The following procedure was used to prepare the formulations for testing: Original compositions were removed from the manufacturer's container and dialysed in 3.5 kDa cut-off dialysis cassettes (Thermo Pierce) at 2-8° C., using three changes for a minimum of 4 hours in each, including one overnight incubation.
(§3) The background solutions, containing the new excipients and adjusted to the required pH, were added to the dialysed proteins to achieve the required concentration of excipients and the protein in the final composition. The formulated samples were placed into storage at 40° C. or at 5° C., and stability was tested after a given period of time. The stability of the proteins was tested in compositions containing oligomers of ethyleneimine and compared to a ‘Control formulation’ with identical background in the absence of the oligomers.
(§4) The amount of high molecular weight species is measured using a 300×7.8 mm S3000 (or equivalent) size-exclusion column with a guard column. The mobile phase is potassium phosphate pH 6.5, with a flow rate of 0.4 ml/min, injection volume of 1 μl and detected at 210 and 280 nm. The results are expressed as % high molecular species (HMWS), i.e. sum of all peak areas corresponding to aggregated protein over the sum of all protein-related peaks on the chromatogram. […] However, within a given time-point the samples are tested using the column in the same condition, so the values generated within the time-point represent a very good indication of the relative stability of the protein in the compositions tested.
Rituximab was formulated at 100 mg/ml in the following background solution: EDTA (0.2 mM), methionine (1 mM), histidine (10 mM). The pH was adjusted to 6.5.
Rituximab was formulated at 100 mg/ml in the following background solution: EDTA (0.2 mM), methionine (1 mM), histidine (10 mM), in the presence of arginine (80 mM) as a tonicity modifier. The pH of all formulations was adjusted to 6.5. For comparison, the formulation of commercial liquid rituximab product (‘Original formulation’ also with rituximab at 100 mg/ml) was also included.
Rituximab was formulated at 100 mg/ml in the following background solution: EDTA (0.2 mM), methionine (1 mM) histidine (10 mM) and trehalose (200 mM). The pH was adjusted to 6.5.
Rituximab was formulated at 140 mg/ml in the following background solution: EDTA (0.2 mM), methionine (1 mM), histidine (10 mM) and trehalose (200 mM). The pH was adjusted to 6.5.
A general note: Size exclusion chromatography separates by hydrodynamic size, large species first.

In a further data set the test system is Certolizumab pegol. The experiment in a line: Aggregation of certolizumab pegol formulations on storage, % HMWS by size exclusion chromatography. As to conditions: Certolizumab pegol 100 mg/ml, 40° C. Type of data set: physicochemical. The procedure: as §1, §2, §3, §4
Certolizumab pegol was formulated at 100 mg/ml in histidine buffer (10 mM, pH 6.0) in the presence of either NaCl (150 mM) or 1,2-propandiol (200 mM) as tonicity modifiers.

Setting [1] is: histidine 10 mM pH 6.0, 1,2-propanediol 200 mM, additive 3 mg/ml.
Setting [2] is: histidine 10 mM pH 6.0, 1,2-propanediol 200 mM, additive 35.9 mg/ml.
Setting [3] is: histidine 10 mM pH 6.0, NaCl 150 mM, additive 3 mg/ml.
Where [4] appears, read: histidine 10 mM pH 6.0, NaCl 150 mM, additive 35.9 mg/ml.

“2K mPEG valerate PEI800 [Compound (4), reference compound]”: the “effect on the rate of formation of HMWS” value in the data set with rituximab is recorded as “reduced the rate of formation of HMWS in a dose dependent manner”. The “% HMWS 16 weeks” value with rituximab (additive 0.2 mg/ml) is 2.57%; in the data set with rituximab (additive 1 mg/ml) it was 1.06%; in the data set on rituximab (additive 5 mg/ml), 0.93%. Also, the “% HWMS 0 weeks” value with rituximab (additive 0.2 mg/ml) was found to be 0.69%; in the data set on rituximab (additive 1 mg/ml), 0.79%; with rituximab (additive 5 mg/ml) it was 0.69%.
In the case of “5K mPEG Propyl Triethylenetetramine Ethanol [Compound (2)]”, the “effect on the rate of aggregation” value with rituximab is on record as “reduction in the rate of aggregation”. Moreover, the “% HMWS 0 weeks” value in the data set on rituximab (additive 0.2 mg/ml) is listed as 0.25%; in the data set with rituximab (additive 1 mg/ml), 0.40%; in the data set with rituximab (additive 5 mg/ml) it was 0.35%; with Certolizumab pegol (setting [1]), 0.64%; in the data set on Certolizumab pegol (setting [2]), 0.81%; with Certolizumab pegol (setting [3]), 0.66%. Besides, the “% HMWS 0 weeks” value in the data set with Certolizumab pegol (setting [4]) worked out at 0.79%. The “% HMWS 12 weeks” value in the data set with rituximab (additive 0.2 mg/ml) turned out to be 1.31%; in the data set with rituximab (additive 1 mg/ml) it was 1.17%; in the data set with rituximab (additive 5 mg/ml), 0.97%. Besides, the figures for the “% HMWS 26 weeks” value in the data set with rituximab (additive 0.2 mg/ml), in the data set on rituximab (additive 1 mg/ml) and in the data set with rituximab (additive 5 mg/ml) were 4.79%, 4.44% and 3.60%, respectively. In addition, the “% HMWS 8 weeks” value with Certolizumab pegol (setting [1]) is 2.02%; in the data set with Certolizumab pegol (setting [2]) it was 2.47%; in the data set with Certolizumab pegol (setting [3]) it was 3.32%; with Certolizumab pegol (setting [4]), 2.39%.
In the case of `NCCNCCN` [Diethylenetriamine], in the data set on rituximab, the “rate of aggregation compared with Original formulation” value is given as “lower”; the “effect on the rate of formation of HMWS” value was “considerably reduce the rate of formation of HMWS in a dose dependent manner”; the “effect on the rate of aggregation” value was “considerable, dose-dependent reduction in the aggregation rate”. In the data set with rituximab (additive 0.2 mg/ml), the “% HMWS 16 weeks” value amounted to 0.94% and the “% HWMS 0 weeks” value is given as 0.81%. Further, in the data set on rituximab (additive 1 mg/ml), the “% HMWS 16 weeks” value is 0.70%, the “% HWMS 0 weeks” value is 0.70%, the “% HMWS 0 weeks” value came out at 0.38% and the “% HMWS 12 weeks” value turned out to be 0.24%. In addition, in the data set with rituximab (additive 5 mg/ml), the “% HMWS 16 weeks” value was determined as 0.67%, the “% HWMS 0 weeks” value is recorded as 0.79%, the “% HMWS 0 weeks” value amounted to 0.37% and the “% HMWS 12 weeks” value was determined as 0.29%. For the same molecule, the “% HMWS 26 weeks” value in the data set with rituximab (additive 5 mg/ml) worked out at 1.83%. For the same molecule, in the data set on rituximab (additive 0.02 mg/ml), the “% HMWS 0 weeks” value turned out to be 0.37%, the “% HMWS 12 weeks” value is listed as 0.91% and the “% HMWS 26 weeks” value is 4.09%. In the data set with rituximab (additive 0.1 mg/ml), the “% HMWS 0 weeks” value worked out at 0.38%, the “% HMWS 12 weeks” value was 0.35% and the “% HMWS 26 weeks” value is recorded as 0.89%.
Take `NCCN` [Ethylenediamine, reference compound]: the “effect on the rate of formation of HMWS” value with rituximab was “less effective in reducing the formation of HMWS”. In addition, the “% HMWS 16 weeks” value was found to be 2.44% with rituximab (additive 0.2 mg/ml), 2.27% in the data set with rituximab (additive 1 mg/ml) and 2.08% in the data set with rituximab (additive 5 mg/ml). The “% HWMS 0 weeks” value was found to be 0.49% in the data set with rituximab (additive 0.2 mg/ml), 0.72% with rituximab (additive 1 mg/ml) and 0.78% in the data set on rituximab (additive 5 mg/ml).
For `NCCNCCNCCN` [Triethylenetetramine], the “rate of aggregation compared with Original formulation” value with rituximab is recorded as “lower”. In addition, the “effect on the rate of formation of HMWS” value with rituximab is reported as “considerably reduce the rate of formation of HMWS in a dose dependent manner”. In the data set on rituximab, the “effect on the rate of aggregation” value was “considerable, dose-dependent reduction in the aggregation rate”. The “% HMWS 16 weeks” value with rituximab (additive 0.2 mg/ml) is 0.81%; with rituximab (additive 1 mg/ml) it was 0.56%; in the data set on rituximab (additive 5 mg/ml), 0.51%. For the same molecule, the “% HWMS 0 weeks” value in the data set with rituximab (additive 0.2 mg/ml) stood at 0.74%; in the data set with rituximab (additive 1 mg/ml), 0.84%; with rituximab (additive 5 mg/ml), 0.74%. Besides, the “% HMWS 0 weeks” value came to 0.36% in the data set with rituximab (additive 0.03 mg/ml); 0.36% in the data set with rituximab (additive 1 mg/ml); 0.26% with rituximab (additive 5 mg/ml); 0.35% in the data set with rituximab (additive […]); 0.55% in the data set with Certolizumab pegol (histidine 10 mM pH 6.0, 1,2-propanediol 200 mM, additive 1 mg/ml); 0.49% in the data set on Certolizumab pegol (setting [1]). The “% HMWS 0 weeks” value in the data set with Certolizumab pegol (histidine 10 mM pH 6.0, NaCl 150 mM, additive 1 mg/ml) was 0.63%; in the data set with Certolizumab pegol (setting [3]) it was 0.49%. Also, the “% HMWS 12 weeks” value with rituximab (additive 0.03 mg/ml) is recorded as 0.29%; with rituximab (additive 1 mg/ml) it was 0.27%; with rituximab (additive 5 mg/ml), 0.17%; in the data set with rituximab (additive […]) it was 0.32%. Further, the “% HMWS 26 weeks” value with rituximab (additive 0.03 mg/ml) amounted to 4.18%; in the data set with rituximab (additive 1 mg/ml), 0.45%; in the data set with rituximab (additive 5 mg/ml), 0.64%; with rituximab (additive […]), 3.26%. Also, in the data set with Certolizumab pegol (setting [1]), the “% HMWS 8 weeks” value was 0.85%.
